The structures appear in SMILES notation. pIC50: −log10 of the molar value. Where only a bound is given, the exact number is not on record here.

Sequence of EZH2 (Q15910 other isoform, or with tags, fused parts or gaps): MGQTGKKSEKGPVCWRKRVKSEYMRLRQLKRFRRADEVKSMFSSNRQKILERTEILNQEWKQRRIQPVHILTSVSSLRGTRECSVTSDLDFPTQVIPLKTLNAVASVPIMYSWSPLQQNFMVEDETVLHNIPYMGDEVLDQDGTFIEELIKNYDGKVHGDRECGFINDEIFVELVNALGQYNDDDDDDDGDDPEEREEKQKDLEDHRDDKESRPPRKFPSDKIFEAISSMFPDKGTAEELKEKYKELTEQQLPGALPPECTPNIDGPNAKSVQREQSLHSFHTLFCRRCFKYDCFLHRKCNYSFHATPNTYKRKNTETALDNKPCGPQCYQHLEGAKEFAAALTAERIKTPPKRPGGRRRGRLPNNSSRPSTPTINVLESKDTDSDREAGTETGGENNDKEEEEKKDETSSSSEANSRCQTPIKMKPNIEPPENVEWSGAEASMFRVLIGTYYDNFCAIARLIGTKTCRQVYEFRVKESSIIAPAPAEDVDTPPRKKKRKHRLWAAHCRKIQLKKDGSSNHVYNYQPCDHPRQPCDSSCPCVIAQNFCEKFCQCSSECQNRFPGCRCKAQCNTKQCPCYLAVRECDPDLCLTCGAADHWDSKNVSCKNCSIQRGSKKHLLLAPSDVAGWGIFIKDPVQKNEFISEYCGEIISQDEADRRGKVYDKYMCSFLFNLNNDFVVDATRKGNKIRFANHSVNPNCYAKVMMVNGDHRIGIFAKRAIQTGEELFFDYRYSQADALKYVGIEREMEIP
Sequence of EZH2 (O75530 whole entry partner): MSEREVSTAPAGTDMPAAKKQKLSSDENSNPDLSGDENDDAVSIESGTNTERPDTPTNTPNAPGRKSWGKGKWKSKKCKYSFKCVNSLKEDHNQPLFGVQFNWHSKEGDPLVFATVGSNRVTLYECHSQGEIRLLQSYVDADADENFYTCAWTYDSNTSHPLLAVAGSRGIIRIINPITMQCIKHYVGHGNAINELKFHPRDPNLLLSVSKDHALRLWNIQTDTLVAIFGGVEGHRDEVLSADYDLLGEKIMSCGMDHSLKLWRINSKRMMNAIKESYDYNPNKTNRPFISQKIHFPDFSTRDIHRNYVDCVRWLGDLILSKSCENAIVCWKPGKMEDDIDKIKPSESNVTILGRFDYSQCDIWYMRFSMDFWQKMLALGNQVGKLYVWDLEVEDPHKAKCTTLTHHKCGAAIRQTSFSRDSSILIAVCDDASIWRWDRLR
Sequence of EZH2 (Q15022 whole entry partner): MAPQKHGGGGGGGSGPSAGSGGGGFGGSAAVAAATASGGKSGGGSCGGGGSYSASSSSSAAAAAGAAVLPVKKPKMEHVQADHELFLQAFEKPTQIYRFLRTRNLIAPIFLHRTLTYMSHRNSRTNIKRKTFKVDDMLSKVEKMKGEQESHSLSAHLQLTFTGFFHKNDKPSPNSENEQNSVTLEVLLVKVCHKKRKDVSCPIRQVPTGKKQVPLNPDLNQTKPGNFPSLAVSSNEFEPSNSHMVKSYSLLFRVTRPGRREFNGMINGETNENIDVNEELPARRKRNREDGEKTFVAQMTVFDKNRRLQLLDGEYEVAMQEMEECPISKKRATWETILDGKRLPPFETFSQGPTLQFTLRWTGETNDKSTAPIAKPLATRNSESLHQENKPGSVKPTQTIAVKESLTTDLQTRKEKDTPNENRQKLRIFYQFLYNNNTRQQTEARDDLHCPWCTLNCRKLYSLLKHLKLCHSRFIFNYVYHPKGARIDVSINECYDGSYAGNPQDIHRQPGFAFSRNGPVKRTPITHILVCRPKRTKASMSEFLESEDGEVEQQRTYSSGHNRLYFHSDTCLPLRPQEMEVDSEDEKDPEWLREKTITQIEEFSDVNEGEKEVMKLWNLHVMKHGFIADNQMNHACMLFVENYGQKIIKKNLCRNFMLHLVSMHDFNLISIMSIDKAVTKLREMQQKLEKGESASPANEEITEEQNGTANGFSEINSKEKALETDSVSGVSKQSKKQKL
Sequence of EZH2 (Q09028 whole entry partner): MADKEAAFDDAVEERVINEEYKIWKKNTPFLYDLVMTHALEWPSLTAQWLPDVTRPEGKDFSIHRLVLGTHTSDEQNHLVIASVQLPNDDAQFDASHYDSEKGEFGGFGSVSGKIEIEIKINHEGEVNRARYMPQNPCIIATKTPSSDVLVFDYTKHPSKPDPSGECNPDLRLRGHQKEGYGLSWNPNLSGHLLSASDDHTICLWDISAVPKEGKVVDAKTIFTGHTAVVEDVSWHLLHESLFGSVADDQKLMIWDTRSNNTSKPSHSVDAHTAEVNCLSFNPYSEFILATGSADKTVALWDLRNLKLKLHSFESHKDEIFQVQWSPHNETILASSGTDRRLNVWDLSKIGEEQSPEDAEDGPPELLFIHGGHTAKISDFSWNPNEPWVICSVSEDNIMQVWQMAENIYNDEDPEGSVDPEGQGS

The assay has as its target EZH2 (Homo sapiens (Human), UniProt Q15910). Kind of assay: PRC2 enzyme assay on peptide substrates. In kind it is biochemical. To be noted: PRC2 enzyme assays on peptide substrates; 4 nM enzyme, 30 min preincubation at 25° C.; read-out: EZH2 IC50. An excerpt: General Materials. S-adenosylmethionine (SAM), S-adenosylhomocyteine (SAH), bicine, KCl, Tween20, dimethylsulfoxide (DMSO) and bovine skin gelatin (BSG) were purchased from Sigma-Aldrich at the highest level of purity possible. Dithiothreitol (DTT) was purchased from EMD. ^3H-SAM was purchased from American Radiolabeled Chemicals with a specific activity of 80 Ci/mmol. 384-well streptavidin Flashplates were purchased from PerkinElmer.
Substrates. […] The sequences are listed below.
Recombinant PRC2 Enzymes. Human PRC2 enzymes were purified as 4-component enzyme complexes co-expressed in Spodoptera frugiperda (sf9) cells using a baculovirus expression system. The subunits expressed were wild-type EZH2 (NM_004456) or EZH2 Y641F, N, H, S or C mutants generated from the wild-type EZH2 construct, EED (NM_003797), Suz12 (NM_015355) and RbAp48 (NM_005610). The EED subunit contained an N-terminal FLAG tag that was used to purify the entire 4-component complex from sf9 cell lysates.
General Procedure for PRC2 Enzyme Assays on Peptide Substrates. The assays were all performed in a buffer consisting of 20 mM bicine (pH=7.6), 0.5 mM DTT, 0.005% BSG and 0.002% Tween20, prepared on the day of use. […] DMSO (1 μL) was added to columns 11, 12, 23, 24, rows A-H for the maximum signal control, and SAH, a known product and inhibitor of PRC2 (1 μL) was added to columns 11, 12, 23, 24, rows I-P for the minimum signal control. A cocktail (40 μL) containing the wild-type PRC2 enzyme and H3K27me0 peptide or any of the Y641 mutant enzymes and H3K27me2 peptide was added by Multidrop Combi (Thermo). The compounds were allowed to incubate with PRC2 for 30 min at 25° C., then a cocktail (10 μL) containing a mixture of non-radioactive and ^3H-SAM was added to initiate the reaction (final volume=51 μL). […] The assays were stopped by the addition of non-radioactive SAM (10 μL) to a final concentration of 600 μM, which dilutes the ^3H-SAM to a level where its incorporation into the peptide substrate is no longer detectable. 50 μL of the reaction in the 384-well polypropylene plate was then transferred to a 384-well Flashplate and the biotinylated peptides were allowed to bind to the streptavidin surface for at least 1 h before being washed three times with 0.1% Tween20 in a Biotek ELx405 plate washer. The plates were then read in a PerkinElmer TopCount platereader to measure the quantity of ^3H-labeled peptide bound to the Flashplate surface, measured as disintegrations per minute (dpm) or alternatively, referred to as counts per minute (cpm).
Where dpm=disintegrations per minute, cmpd=signal in assay well, and min and max are the respective minimum and maximum signal controls.
Where top and bottom are the normally allowed to float, but may be fixed at 100 or 0 respectively in a 3-parameter fit. The Hill Coefficient normally allowed to float but may also be fixed at 1 in a 3-parameter fit. Y is the % inhibition and X is the compound concentration.
The pIC50 is the negative decadic logarithm of the IC50, by convention in mol/L. For the compound `Cc1ccc(-n2ncc3c(C(=O)NCc4c(C)cc(C)[nH]c4=O)cc(-c4ccc(N5CCN(C)CC5)nc4)nc32)cc1` [Compound A-65], the pIC50 is 5.00 to 5.52.
As for `Cc1cc(C)c(CNC(=O)c2cc(-c3cccnc3N3CCNCC3)nc3c2cnn3C(C)C)c(=O)[nH]1` [Compound A-66], the figure is 5.52 to 6.00.
As for `Cc1cc(C)c(CNC(=O)c2cc(-c3cccc(C(=O)O)c3)nc3c2cnn3C(C)C)c(=O)[nH]1` [Compound A-67], the figure is 5.52 to 6.00.
Under `Cc1cc(C)c(CNC(=O)c2cc(-c3ccc(-c4ccccc4CN)nc3)nc3c2cnn3C(C)C)c(=O)[nH]1` [Compound A-68] stands 5.00 to 5.52.
Regarding `Cc1cc[nH]c(=O)c1CNC(=O)c1cc(-c2cccc(CN(C)CCN(C)C)c2)nc2c1cnn2C(C)C` [Compound A-70], the pIC50 is 5.00 to 5.52.
Under `CC(C)n1ncc2c(C(=O)NCc3cc4c([nH]c3=O)CCNC4)cc(-c3ccc4c(c3)OCCO4)nc21` [Compound A-71] stands 4.30 to 5.00.
Consider `Cc1cc[nH]c(=O)c1CNC(=O)c1cc(-c2cccc(CN3CCN(C)CC3)c2)nc2c1cnn2C(C)C` [Compound A-72], for which the pIC50 was 4.30 to 5.00.
With `Cc1cc(C)c(CN(C)C(=O)c2cc(-c3cccc(CN4CCN(C)CC4)c3)nc3c2cnn3C(C)C)c(=O)[nH]1` [Compound A-73], the pIC50 was 4.30 to 5.00.
For the compound `Cc1cc(C)n(C)c(=O)c1CNC(=O)c1cc(-c2cccc(CN(C)CCN(C)C)c2)nc2c1CNN2C(C)C` [Compound A-74], the pIC50 is 4.30 to 5.00.
As for `Cc1cc[nH]c(=O)c1CNC(=O)c1cc(-c2ccc3c(c2)OCCO3)nc2c1cnn2C(C)C` [Compound A-77], the pIC50 was 4.30 to 5.00.
On to `Cc1cc(C)c(CNC(=O)c2cc(-c3cccc(CNC(=O)OC(C)(C)C)c3)nc3c2cnn3C(C)C)c(=O)[nH]1` [Compound A-92], for which the pIC50 was 5.52 to 6.00.
Under `C=C(C)c1nn(C(C)C)c2nc(-c3ccc(CN4CCOCC4)cc3)cc(C(=O)NCc3c(C)cc(C)[nH]c3=O)c12` [Compound A-94] stands 5.00 to 5.52; under `Cc1cc(C)c(CNC(=O)c2cc(-c3cccnc3N3CCN(C(=O)OC(C)(C)C)CC3)nc3c2cnn3C(C)C)c(=O)[nH]1` [Compound A-95], 5.00 to 5.52.
As for `Cc1cc(CO)c(CNC(=O)c2cc(-c3ccc(CN4CCOCC4)cc3)nc3c2cnn3C(C)C)c(=O)[nH]1` [Compound A-96], the figure is 5.00 to 5.52; as for `Cc1cc(C)c(CNC(=O)c2cc(-c3ccccc3CNC(=O)OC(C)(C)C)nc3c2cnn3C(C)C)c(=O)[nH]1` [Compound A-98], 4.30 to 5.00; as for `Cc1ccc(CNC(=O)c2cc(-c3cccc(CN(C)CCN(C)C)c3)nc3c2cnn3C(C)C)c(=O)[nH]1` [Compound A-99], 4.30 to 5.00.
Turning to `Cc1ccc(CNC(=O)c2cc(-c3cccc(CN4CCN(C)CC4)c3)nc3c2cnn3C(C)C)c(=O)[nH]1` [Compound A-100], the negative-log IC50 (pIC50) is 4.30 to 5.00.
With `Cc1cc(C)c(CNC(=O)c2cc(-c3ccc(N4CCN(C)CC4)nc3)nc3c2cnn3-c2ccccc2)c(=O)[nH]1` [Compound A-109], the pIC50 is 4.30 to 5.00.
In the case of `CCc1ccc(CNC(=O)c2cc(-c3ccc4c(c3)OCCO4)nc3c2cnn3C(C)C)c(=O)[nH]1` [Compound A-110], the pIC50 is 4.30 to 5.00.
Under `CC1=CC(C)=C(CNC(=O)c2cc(-c3cccc(CNCCCN(C)C)c3)nc3c2cnn3C(C)C)C(C)N1` (centres unmarked) [Compound A-125] stands 5.52 to 6.00; under `Cc1cc(C)c(CNC(=O)c2cc(-c3cccc(CNCCN4CCOCC4)c3)nc3c2cnn3C(C)C)c(=O)[nH]1` [Compound A-126], 6.00 to 6.52.
As to `Cc1cc(C)c(CNC(=O)c2cc(C3=CC(C)(C)NC(C)(C)C3)nc3c2cnn3C2CCN(Cc3ccccc3)CC2)c(=O)[nH]1` [Compound B-1, 1-(1-benzylpiperidin-4-yl)-N-((4,6-dimethyl-2-oxo-1,2-dihydropyridin-3-yl)methyl)-6-(2,2,6,6-tetramethyl-1,2,3,6-tetrahydropyridin-4-yl)-1H-pyrazolo[3,4-b]pyridine-4-carboxamide], the negative logarithm of the IC50 (pIC50) was above 6.52.
Under `CC(=O)N1CCC(n2ncc3c(C(=O)NCc4c(C)cc(C)[nH]c4=O)cc(C4=CC(C)(C)NC(C)(C)C4)nc32)CC1` [Compound B-2, 1-(1-acetylpiperidin-4-yl)-N-((4,6-dimethyl-2-oxo-1,2-dihydropyridin-3-yl)methyl)-6-(2,2,6,6-tetramethyl-1,2,3,6-tetrahydropyridin-4-yl)-1H-pyrazolo[3,4-b]pyridine-4-carboxamide] stands 6.00 to 6.52.
Under `C=C(C)Cn1ncc2c(C(=O)NCc3c(C)cc(C)[nH]c3=O)cc(C3=CC(C)(C)NC(C)(C)C3)nc21` [Compound B-3, N-((4,6-dimethyl-2-oxo-1,2-dihydropyridin-3-yl)methyl)-1-(2-methylallyl)-6-(2,2,6,6-tetramethyl-1,2,3,6-tetrahydropyridin-4-yl)-1H-pyrazolo[3,4-b]pyridine-4-carboxamide] stands 5.52 to 6.00; under `Cc1cc(C)c(CNC(=O)c2cc(C3=CC(C)(C)NC(C)(C)C3)nc3c2cnn3C2CCCC2)c(=O)[nH]1` [Compound B-5, 1-cyclopentyl-N-((4,6-dimethyl-2-oxo-1,2-dihydropyridin-3-yl)methyl)-6-(2,2,6,6-tetramethyl-1,2,3,6-tetrahydropyridin-4-yl)-1H-pyrazolo[3,4-b]pyridine-4-carboxamide], above 6.52.
As for `Cc1cc(C)c(CNC(=O)c2cc(OC3CCN(C)CC3)nc3c2cnn3C(C)C)c(=O)[nH]1` [Compound B-6, N-((4,6-dimethyl-2-oxo-1,2-dihydropyridin-3-yl)methyl)-1-isopropyl-6-((1-methylpiperidin-4-yl)oxy)-1H-pyrazolo[3,4-b]pyridine-4-carboxamide], the figure is 6.00 to 6.52; as for `Cc1cc(C)c(CNC(=O)c2cc(C3CCN(C(=O)C4CN(C)C4)CC3)nc3c2cnn3C(C)C)c(=O)[nH]1` [Compound B-8, N-((4,6-dimethyl-2-oxo-1,2-dihydropyridin-3-yl)methyl)-1-isopropyl-6-(1-(1-methylazetidine-3-carbonyl)piperidin-4-yl)-1H-pyrazolo[3,4-b]pyridine-4-carboxamide], above 6.52.
`Cc1cc(C)c(CNC(=O)c2cc(N3CCN(C)CC3)nc3c2cnn3C(C)C)c(=O)[nH]1` [Compound B-9, N-((4,6-dimethyl-2-oxo-1,2-dihydropyridin-3-yl)methyl)-1-isopropyl-6-(4-methylpiperazin-1-yl)-1H-pyrazolo[3,4-b]pyridine-4-carboxamide]: the pIC50 is 5.52 to 6.00.
As for `Cc1cc(C)c(CNC(=O)c2cc(N3CCC(O)CC3)nc3c2cnn3C(C)C)c(=O)[nH]1` [Compound B-11, N-((4,6-dimethyl-2-oxo-1,2-dihydropyridin-3-yl)methyl)-6-(4-hydroxypiperidin-1-yl)-1-isopropyl-1H-pyrazolo[3,4-b]pyridine-4-carboxamide], the figure is 5.52 to 6.00; as for `Cc1cc(C)c(CNC(=O)c2c(Cl)c(C3=CC(C)(C)NC(C)(C)C3)nc3c2cnn3C(C)C)c(=O)[nH]1` [Compound B-12, 5-chloro-N-((4,6-dimethyl-2-oxo-1,2-dihydropyridin-3-yl)methyl)-1-isopropyl-6-(2,2,6,6-tetramethyl-1,2,3,6-tetrahydropyridin-4-yl)-1H-pyrazolo[3,4-b]pyridine-4-carboxamide], 5.52 to 6.00; as for `Cc1cc(C)c(CNC(=O)c2cc(C3=CC(C)(C)NC(C)(C)C3)nc3c2c(C)nn3C(C)C)c(=O)[nH]1` [Compound B-13, N-((4,6-dimethyl-2-oxo-1,2-dihydropyridin-3-yl)methyl)-1-isopropyl-3-methyl-6-(2,2,6,6-tetramethyl-1,2,3,6-tetrahydropyridin-4-yl)-1H-pyrazolo[3,4-b]pyridine-4-carboxamide], 6.00 to 6.52.
As for `Cc1cc(C)c(CNC(=O)c2cc(C3=CC(C)(C)NC(C)(C)C3)nc3c2cnn3C2CCC2)c(=O)[nH]1` [Compound B-14, 1-cyclobutyl-N-((4,6-dimethyl-2-oxo-1,2-dihydropyridin-3-yl)methyl)-6-(2,2,6,6-tetramethyl-1,2,3,6-tetrahydropyridin-4-yl)-1H-pyrazolo[3,4-b]pyridine-4-carboxamide], the figure is 6.00 to 6.52.
